{"source": "paper PMC4947994", "about": "(Acta Naturae, 2016)", "key": {"[1]": {"molecular_target": "T1, human PARP-1 (Homo sapiens, UniProt P09874)", "T1 construct": "made in house", "T1 sequence (P09874 whole entry)": "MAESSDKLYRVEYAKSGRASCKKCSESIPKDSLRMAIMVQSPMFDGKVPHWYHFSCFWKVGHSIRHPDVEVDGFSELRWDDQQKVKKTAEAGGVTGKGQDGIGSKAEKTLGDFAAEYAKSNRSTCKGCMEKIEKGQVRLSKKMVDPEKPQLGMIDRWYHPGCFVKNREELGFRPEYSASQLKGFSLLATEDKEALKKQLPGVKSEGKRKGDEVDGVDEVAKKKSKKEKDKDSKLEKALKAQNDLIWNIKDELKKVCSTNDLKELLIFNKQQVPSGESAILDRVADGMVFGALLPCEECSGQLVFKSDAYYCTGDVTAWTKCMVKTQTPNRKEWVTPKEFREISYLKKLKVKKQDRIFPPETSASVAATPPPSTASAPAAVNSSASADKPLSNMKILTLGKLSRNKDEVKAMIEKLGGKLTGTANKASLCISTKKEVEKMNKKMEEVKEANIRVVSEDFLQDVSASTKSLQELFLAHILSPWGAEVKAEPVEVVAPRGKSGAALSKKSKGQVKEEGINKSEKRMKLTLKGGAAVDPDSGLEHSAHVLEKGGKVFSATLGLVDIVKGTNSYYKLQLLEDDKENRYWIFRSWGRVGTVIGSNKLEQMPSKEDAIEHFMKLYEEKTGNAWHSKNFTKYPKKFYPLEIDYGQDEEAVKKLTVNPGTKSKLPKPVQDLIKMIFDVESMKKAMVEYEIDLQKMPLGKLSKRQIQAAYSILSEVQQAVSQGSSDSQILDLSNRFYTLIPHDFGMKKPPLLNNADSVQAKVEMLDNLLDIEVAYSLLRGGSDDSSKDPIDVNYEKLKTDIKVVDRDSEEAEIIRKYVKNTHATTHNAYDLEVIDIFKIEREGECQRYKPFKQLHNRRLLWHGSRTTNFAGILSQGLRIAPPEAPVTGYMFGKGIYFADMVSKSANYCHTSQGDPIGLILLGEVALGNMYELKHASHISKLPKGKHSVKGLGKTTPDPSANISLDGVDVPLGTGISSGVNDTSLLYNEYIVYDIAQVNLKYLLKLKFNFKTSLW", "experiment": "biochemical", "type": "biochemical", "details": "for IC50: auto-poly(ADP-ribosyl)ation, NAD+ 0.3 mM, 37°C", "method": "(§1) Recombinant human PARP-1 and murine PARP- 2 proteins were purified as described previously. Reaction of poly(ADP-ribosyl)ation catalyzed by PARP-1 and PARP-2 was performed at optimal conditions for each enzyme. Briefly, for PARP-1: 50 mM Tris-HCl pH 8.0, 20 mM MgCl2, 150 mM NaCl, 7 mM β-mercaptoethanol, activated DNA (2 o.u.280/ml, degree of activation 25%), 300 •µM NAD^+ (0.18 •µCi [^3H]NAD^+), 37°C. The reaction was started by adding PARP-1 up to a final concentration of 0.2 μM and was stopped after 1 min, placing the reaction mixture on paper filters (Whatman-1) soaked with a 5% solution of trichloroacetic acid. For PARP-2: 50 mM Tris-HCl pH 8.0, 40 mM NaCl, 0.1 mg/ml BSA, 8 mM MgCl2, 1 mM DTT, activated DNA (2 o.u.280/ml, degree of activation 25%), 400 •µM NAD^+ (0.4 •µCi [^3H]NAD^+), 37°C. The reaction was started by adding PARP-2 up to a final concentration of 0.2 μM and was stopped after 5 min, placing the reaction mixture on the paper filters. The filters were washed four times by the 5% trichloroacetic acid, then by 90% ethanol (to remove acid), and air-dried. The quantity of radiolabel included into the acid insoluble product was registered on a scintillation counter Tri-Carb 2800 (Perkin Elmer) in a toluene scintillator. The quantity of the radiolabeled product was determined at the initial rate period.\n(§2) The PARP-inhibiting activity of the synthesized compounds was evaluated in a reaction of auto- poly(ADP-ribosyl)ation at a NAD^+ concentration of 0.3 mM for PARP-1 and 0.4 mM for PARP-2. Different concentrations of the tested compounds were added to the reaction mixture before adding the enzyme. Reaction and detection of the products were performed as described above. To determine the IC50 value (concentration of the compound required to reduce the enzyme activity by 50%), the effect of different concentrations of the inhibitor on the enzyme activity was examined. Measurements were done in at least two independent experiments. IC50 values were calculated using the Origin Pro 8.0 software by nonlinear regression analysis."}, "[2]": {"molecular_target": "T2, murine PARP-2 (Mus musculus, UniProt O88554)", "T2 construct": "made in house", "T2 sequence (O88554 whole entry)": "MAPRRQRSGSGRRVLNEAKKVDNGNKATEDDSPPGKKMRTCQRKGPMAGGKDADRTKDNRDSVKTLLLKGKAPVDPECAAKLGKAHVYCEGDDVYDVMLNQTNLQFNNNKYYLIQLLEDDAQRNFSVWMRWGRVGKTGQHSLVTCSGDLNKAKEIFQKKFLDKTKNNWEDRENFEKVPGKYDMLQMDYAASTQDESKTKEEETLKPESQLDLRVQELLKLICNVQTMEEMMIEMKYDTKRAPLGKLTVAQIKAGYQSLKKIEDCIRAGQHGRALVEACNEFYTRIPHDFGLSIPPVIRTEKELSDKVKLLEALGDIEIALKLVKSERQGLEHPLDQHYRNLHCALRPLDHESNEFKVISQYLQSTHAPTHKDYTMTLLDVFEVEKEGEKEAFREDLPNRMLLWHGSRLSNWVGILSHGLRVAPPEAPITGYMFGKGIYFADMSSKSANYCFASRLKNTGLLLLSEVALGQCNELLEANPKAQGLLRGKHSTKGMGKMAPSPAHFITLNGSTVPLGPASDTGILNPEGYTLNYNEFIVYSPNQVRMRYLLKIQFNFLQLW", "experiment": "PARP-2 auto-poly(ADP-ribosyl)ation enzyme assay ([3H]NAD+ incorporation)", "type": "biochemical", "details": "for IC50: auto-poly(ADP-ribosyl)ation, NAD+ 0.4 mM, 37°C", "method": "as §1, §2"}, "[3]": {"test_system": "HCC1937 cells", "experiment": "Cytotoxicity: Sub-G1 population by flow cytometry", "type": "cell-based, human", "details": "for Sub-G1 population: 72 h", "method": "(§3) A BRCA1-deficient human breast cancer line HCC1937 (ATCC CRL-2336) was cultured in DMEM supplemented with 10% heat-inactivated fetal bovine serum, penicillin/streptomycin (100 U/ml), and pyruvate (0,11 mg/ml) at 37°C in 20% O2 humidified atmosphere. The cells were maintained in a logarithmic growth phase for all experiments.\n(§4) To perform cell cycle analysis, the cells were then harvested after 72 hours, fixed with 70% EtOH (final concentration) for 60 min on ice, rinsed in PBS, and stained in a 500 •µl solution containing 50 •µg/ml propidium iodide and 25 •µg/ml RNase A for 15 min. Data were acquired by a BD FACS CantoII flow cytometer (BD Biosciences) and analyzed using the FACSDiva software. The cleavage of the fluorogenic peptide substrate […] was measured using a fluorometric assay. Upon treatment with cytotoxic agents, the cells were incubated for 48 hours, then harvested and washed with PBS. After centrifugation, they were re-suspended in PBS at a concentration of 2 × 10^6 cells/100 μl. Then, 25 μl of the suspension was added to a 96-well plate and mixed with a DEVD peptide substrate dissolved in a standard reaction buffer (100 mM HEPES, 10% sucrose, 5 mM DTT, 0.001% NP- 40, and 0.1% CHAPS, pH 7.2). Cleavage of the fluorogenic peptide substrate was monitored by AMC liberation in a VarioScan Flash multimode detector (Thermo Scientific) using 380 nm excitation and 460 nm emission wavelengths. Measurements were done in at least two independent experiments."}, "[4]": {"test_system": "HCC1937 cells", "experiment": "Caspase-3-like activity (fluorogenic peptide substrate cleavage)", "type": "cell-based, human", "details": "7-methylguanine alone, 48 h", "method": "as §3\nas §4, with “Then, 25 μl of the suspension was added to a 96-well plate and mixed with a DEVD peptide substrate dissolved in a standard reaction buffer (100 mM HEPES, 10% sucrose, 5 mM DTT, 0.001% NP- 40, and 0.1% CHAPS, pH 7.2).” left out, “Measurements were done in at least two independent experiments.” left out"}, "[5]": {"test_system": "PARP-1", "details": "cited from earlier work"}, "[6]": {"test_system": "PARP", "set-up": "method as in PMID 11149897, PMID 16870158", "details": "cited from earlier work"}, "[7]": {"details": "replacement of 2-oxo group by amino group"}}}
{"compound": "CCn1cnc2[nH]c(N)nc(=O)c21", "note": "[7-ethylguanine, 7-Ethylguanine]", "values": [{"measurement": "IC50", "setting": "[1]", "value": 230, "unit": "µM"}, {"measurement": "IC50", "setting": "[2]", "value": 90, "unit": "µM"}]}
{"compound": "Cn1cnc2nc(N)[nH]c(=O)c21", "note": "[7-methylguanine, 7-Methylguanine]", "values": [{"measurement": "IC50", "setting": "[1]", "value": 150, "unit": "µM"}, {"measurement": "increase in the ability to inhibit PARP-1 compared with 7-methylxanthine", "setting": "[1]; [7]", "value": 5, "unit": "fold"}, {"measurement": "IC50", "setting": "[2]", "value": 50, "unit": "µM"}, {"measurement": "increase in the ability to inhibit PARP-2 compared with 7-methylxanthine", "setting": "[2]; [7]", "value": 3, "unit": "fold"}, {"measurement": "Sub-G1 population", "setting": "[3]; 7-methylguanine 150 μM alone", "value": "around 2%"}, {"measurement": "cytotoxicity", "setting": "[3]; at the PARP inhibitory concentration, 7-methylguanine alone", "value": "not cytotoxic"}, {"measurement": "caspase-3 activation", "setting": "[4]", "value": "no caspase-3 activation"}]}
{"compound": "Cn1cnc2nc[nH]c(=O)c21", "note": "[7-methylhypoxanthine, 7-Methylhypoxanthine]", "values": [{"measurement": "IC50", "setting": "[1]", "value": 780, "unit": "µM"}, {"measurement": "IC50", "setting": "[2]", "value": 620, "unit": "µM"}]}
{"compound": "Cn1cnc2[nH]c(=O)[nH]c(=O)c21", "note": "[7-methylxanthine, 7-Methylxanthine]", "values": [{"measurement": "IC50", "setting": "[1]", "value": 800, "unit": "µM"}, {"measurement": "IC50", "setting": "[2]", "value": 160, "unit": "µM"}, {"measurement": "PARP-1 inhibition", "setting": "[5]", "value": "moderate inhibitor"}]}
{"compound": "N.N.[Cl][Pt][Cl]", "note": "[cisplatin, reference compound]", "values": [{"measurement": "Sub-G1 population", "setting": "[3]; cisplatin 70 μM alone", "value": 34, "unit": "%"}]}
{"compound": "COc1cccc2c1C(=O)c1c(O)c3c(c(O)c1C2=O)C[C@@](O)(C(=O)CO)C[C@@H]3O[C@H]1C[C@H](N)[C@H](O)[C@H](C)O1", "note": "[doxorubicin, reference compound]", "values": [{"measurement": "Sub-G1 population", "setting": "[3]; doxorubicin 1 μM alone", "value": 32, "unit": "%"}]}
{"compound": "O=c1[nH]cnc2nc[nH]c12", "note": "[hypoxanthine]", "values": [{"measurement": "PARP inhibitory effect", "setting": "[6]", "value": "relatively weak inhibitory effect"}]}
{"compound": "Cc1c[nH]c(=O)[nH]c1=O", "note": "[thymine]", "values": [{"measurement": "PARP inhibitory effect", "setting": "[6]", "value": "relatively weak inhibitory effect"}]}
{"compound": "O=c1[nH]c(=O)c2nc[nH]c2[nH]1", "note": "[xanthine, reference compound]", "values": [{"measurement": "PARP-1 inhibition", "setting": "[5]", "value": "does not show inhibition"}]}
